In patent EP0851862B1, “1(HETERO)ARYL-4-(CONDENSED THIAZOL-2-YLALKYL)-PIPERAZINE DERIVATIVES, THEIR PREPARATION AND THEIR USE IN THE TREATMENT OF 5-HT1A-RECEPTOR MEDIATED DISORDERS” (Pharmacia Italia S.p.A., priority 1995, dated 1997):
Structures can show the parent of a compound that is named as a salt.

Tests used:
5-HT1A receptor sites = biological target: T1, 5-HT1A receptor sites (Rattus norvegicus, UniProt P19327); assay: receptor binding profile, 5-HT1A; settings: read-out: 5-HT1A Affinity is expressed as IC50
T1 sequence (P19327 1-422): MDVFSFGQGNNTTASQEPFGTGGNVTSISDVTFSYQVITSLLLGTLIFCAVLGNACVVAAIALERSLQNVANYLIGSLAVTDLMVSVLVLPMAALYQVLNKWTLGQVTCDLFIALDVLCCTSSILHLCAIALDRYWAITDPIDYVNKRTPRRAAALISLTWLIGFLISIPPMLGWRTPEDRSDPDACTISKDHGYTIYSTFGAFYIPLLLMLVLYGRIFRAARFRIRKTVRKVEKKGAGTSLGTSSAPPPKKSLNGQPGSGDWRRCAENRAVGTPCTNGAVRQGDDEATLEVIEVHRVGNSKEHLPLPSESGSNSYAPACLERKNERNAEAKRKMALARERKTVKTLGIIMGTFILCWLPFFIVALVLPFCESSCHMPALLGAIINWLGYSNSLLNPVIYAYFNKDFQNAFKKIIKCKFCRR
From the text: The affinity of the compounds of the present invention towards 5-HT1A receptor sites can be assessed by evaluating the binding profile of the compounds of formula (I).

5-HT2 = 5-HT2 (Rattus norvegicus, UniProt P14842); assay: receptor binding profile, 5-HT2; settings: read-out: 5-HT2 Affinity is expressed as IC50
Chain of 5-HT2 (P14842 whole entry): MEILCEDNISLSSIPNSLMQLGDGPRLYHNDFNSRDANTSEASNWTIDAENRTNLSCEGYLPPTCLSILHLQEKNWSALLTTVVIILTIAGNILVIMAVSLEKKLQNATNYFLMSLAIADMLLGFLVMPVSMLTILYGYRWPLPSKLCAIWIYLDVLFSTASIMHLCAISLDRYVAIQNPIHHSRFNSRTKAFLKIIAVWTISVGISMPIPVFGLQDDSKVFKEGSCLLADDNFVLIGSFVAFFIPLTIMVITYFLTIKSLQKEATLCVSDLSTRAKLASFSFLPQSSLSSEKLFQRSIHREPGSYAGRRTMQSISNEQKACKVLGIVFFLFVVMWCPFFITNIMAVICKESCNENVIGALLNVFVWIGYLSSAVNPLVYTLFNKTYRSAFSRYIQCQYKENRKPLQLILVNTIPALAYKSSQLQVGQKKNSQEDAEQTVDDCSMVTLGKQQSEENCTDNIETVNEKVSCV

α1 = assay: receptor binding profile, α1; settings: read-out: α1 Affinity is expressed as IC50
α2 = assay: receptor binding profile, α2; settings: read-out: α2 Affinity is expressed as IC50
D2 = D2 (Rattus norvegicus, UniProt P61169); assay: receptor binding profile, D2; settings: read-out: D2 Affinity is expressed as IC50
Chain of D2 (P61169 whole entry): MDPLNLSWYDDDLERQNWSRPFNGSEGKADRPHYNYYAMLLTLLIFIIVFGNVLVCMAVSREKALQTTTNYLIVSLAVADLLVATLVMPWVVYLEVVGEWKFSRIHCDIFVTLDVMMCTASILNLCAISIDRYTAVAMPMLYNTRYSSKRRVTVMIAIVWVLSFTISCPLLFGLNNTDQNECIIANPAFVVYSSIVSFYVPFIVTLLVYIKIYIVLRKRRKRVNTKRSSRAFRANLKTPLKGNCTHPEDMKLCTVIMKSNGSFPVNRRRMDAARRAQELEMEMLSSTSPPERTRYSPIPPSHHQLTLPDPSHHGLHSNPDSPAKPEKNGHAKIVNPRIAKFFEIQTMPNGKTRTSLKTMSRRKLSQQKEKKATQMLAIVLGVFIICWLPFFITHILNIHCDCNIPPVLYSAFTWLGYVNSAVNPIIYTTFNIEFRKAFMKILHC

D1 = D1 (Rattus norvegicus, UniProt P18901); assay: receptor binding profile, D1; settings: read-out: D1 Affinity is expressed as IC50
Chain of D1 (P18901 whole entry): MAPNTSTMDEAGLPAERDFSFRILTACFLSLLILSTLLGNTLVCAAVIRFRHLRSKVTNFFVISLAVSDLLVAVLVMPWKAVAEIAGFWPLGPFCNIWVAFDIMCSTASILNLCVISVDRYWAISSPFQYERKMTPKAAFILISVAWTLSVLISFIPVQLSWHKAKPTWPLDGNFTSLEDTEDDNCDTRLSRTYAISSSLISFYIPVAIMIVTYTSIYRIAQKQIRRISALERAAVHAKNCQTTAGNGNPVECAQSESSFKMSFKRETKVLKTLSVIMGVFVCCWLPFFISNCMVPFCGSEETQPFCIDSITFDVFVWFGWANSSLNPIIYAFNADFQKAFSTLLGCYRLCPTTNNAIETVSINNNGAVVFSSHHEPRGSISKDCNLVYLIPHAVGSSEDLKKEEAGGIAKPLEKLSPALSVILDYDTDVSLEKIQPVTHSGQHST

| Molecule | IC50 (5-HT1A receptor sites) | IC50 (5-HT2) | IC50 (α1) | IC50 (α2) | IC50 (D2) | IC50 (D1) |
| --- | --- | --- | --- | --- | --- | --- |
| c1ccc(N2CCN(CCc3nc4c(s3)CCc3ccccc3-4)CC2)cc1 [(3)] | 170 nM | 63 nM | 110 nM | 160 nM |  |  |
| c1ccc(N2CCN(CCCc3nc4c(s3)CCc3ccccc3-4)CC2)cc1 [(4), 2-[3-(4-phenyl-piperazin-1-yl)-propyl]-4,5-dihydronaphtho[1,2-d]thiazole hydrocloride] | 69 nM | 280 nM | 120 nM | 110 nM |  |  |
| COc1ccc2c(c1)CCc1sc(CCCN3CCN(c4ccccc4OC)CC3)nc1-2 [(6), 7-Methoxy-2-{3-[4-(2-methoxy-phenyl) -piperazin-1-yl]-propyl}-4,5-dihydro-naphtho[1,2-d]thiazole hydrochloride] |  |  | 90 nM | 160 nM |  |  |
| c1ccc(N2CCN(Cc3nc4c(s3)CCc3ccccc3-4)CC2)cc1 [(2), 2-[(4-phenyl-piperazin-1-yl)-methyl]-4,5 dihydronaphtho[1,2-d]thiazole hydrocloride] | 42 nM | 300 nM | 130 nM | 300 nM |  |  |
| 5-Methoxy-2-{4-[4-(2-methoxy-phenyl)-piperazin-1-yl]-butyl}-4,5-dihydro-naphtho[1,2-d]thiazole hydrochloride [(13)] | 3.7 nM | 240 nM | 35 nM | 46 nM | 8 nM |  |
| 7-Methoxy-2-{4-[4-(2-methoxy-phenyl)-piperazin-1-yl]-butyl}-4,5-dihydro-naphtho[1,2-d]thiazole hydrochloride [(8)] | 7 nM | 720 nM | 200 nM | 380 nM | 150 nM | 1610 nM |
| 6-Methoxy-2-[4-(4-phenyl-piperazin-1-yl)-butyl]-4,5-dihydro-naphtho[1,2-d]thiazole hydrochloride [(10)] | 400 nM | 3180 nM | 1140 nM | 3770 nM | 680 nM | > 10000 nM |
| 6-Methoxy-2-{4-(4-(2-methoxy-phenyl)-piperazin-1-yl]-butyl}-4,5-dihydro-naphtho[1,2-d]thiazole hydrochloride [(1)] | 3.2 nM | 250 nM | 52 nM | 92 nM | 20 nM | 590 nM |
| 7-Methoxy-2-[4-(4-phenyl-piperazin-1-yl)-butyl]-4,5-dihydro-naphtho[1,2-d]thiazole hydrochloride [(7)] | 12 nM | 870 nM | 49 nM | 500 nM | 25 nM | 1180 nM |
| 5-Methoxy-2-[4-(4-phenyl-piperazin-1-yl)-butyl]-4,5-dihydro-naphtho[1,2-d]thiazole hydrochloride [(11)] | 10 nM | 66 nM | 52 nM | 18 nM | 24 nM | 1770 nM |
| 5-Methoxy-2-{4-[4-(2-pyridyl)-piperazin-1-yl]-butyl}-4,5-dihydro-naphtho[1,2-d]thiazole hydrochloride [(12)] | 8.2 nM | 82 nM | 190 nM | 390 nM | 61 nM | 1490 nM |
| 7-Methoxy-2-{4-[4-(2-pyridyl)-piperazin-1-yl]-butyl}-4,5-dihydro-naphtho[1,2-d]thiazole hydrochloride [(9)] | 4.1 nM | 55 nM | 58 nM | 20 nM | 11 nM | 430 nM |
| c1ccc(N2CCN(CCCCc3nc4c(s3)CCc3ccccc3-4)CC2)cc1 [(5), 2-[4-(4-phenyl-piperazin-1-yl)-butyl]-4,5-dihydronaphtho[1,2-d]thiazole hydrocloride] | 67 nM | 66 nM | 170 nM | 260 nM |  |  |
